Assay results published in patent publication US10731159B2, “Cationic lipid” (DAIICHI SANKYO COMPANY, LIMITED, priority 2013, dated 2020).

Key:
human PLK-1 gene = assay: Test Example 10: PLK-1 expression inhibition in Hep3B tumor of nude mice; format: in vivo; conditions: nude mice with subcutaneous Hep3B tumor, i.v. 1 mg/kg and 3 mg/kg, tumor collected the day after administration; particles of Example 57
Procedure: After acclimatization and raising of each nude mouse (CAnN.Cg-Foxn1[nu]/CrlCrlj[Foxn1nu/Foxn1nu]) for 8 days, cultured human Hep3B cells (1×10^7 cells/mouse) were subcutaneously transplanted to the right lateral region of the mouse. 19 days after the tumor transplantation, the mice were grouped with the tumor volume as an index, and, on the next day, the nucleic acid lipid particle-containing dispersion prepared in Example 57 was intravenously administered (administered at doses of 1 mg/kg and 3 mg/kg) to the tail of each mouse. PBS was administered to a control group. On the day after the administration of the nucleic acid lipid particle, a tumor mass was collected from the cancer-bearing mouse, and a nucleic acid was extracted using QIAzol Lysis Reagent (manufactured by Qiagen N.V.) and chloroform. Then, total RNA was purified using QIAGNE RNeasy Plus Mini kit (manufactured by Qiagen N.V.) according to the attached protocol.
16 μL of the purified RNA and 4 μL of SuperScript VILO Master mix (Life Technologies, Inc.) were mixed and used in RT reaction under conditions given below.
RT reaction: 25° C. for 10 min • 42° C. for 60 min • 85° C. for 5 min. […]
The quantitative analysis was conducted by the ΔΔCt method. A value (ΔΔCt) was determined by subtracting ΔCt of the PBS administration group from the difference in Ct value (ΔCt) between human PLK-1 and human GAPDH in the administration group of each nucleic acid lipid particle, and a relative value (RQ) to the PBS administration group, RQmax, and RQmin were calculated according to the following expressions: RQ=2^−ΔΔCt RQmax=2^−95% CI of ΔΔCt (95% CI of ΔΔCt: the maximum value of 95% confidence interval of ΔΔCt) RQmin=2^−95% CI of ΔΔCt (95% CI of ΔΔCt: the minimum value of 95% confidence interval of ΔΔCt)
In the diagram, error bars were calculated according to the following expression: +error bars:RQmax−RQ,−error bars:RQ−RQmin)

[1] = Ratio of polynucleotide/mRNA to lipid (wt/wt); format: physicochemical
Procedure: The nucleic acid lipid particle dispersion was mixed with acetonitrile and chloroform at a ratio of 1:1:1 and centrifuged at 15,000 rpm for 2 minutes. Then, the aqueous layer obtained as an upper layer was recovered, followed by the extraction of the double-stranded polynucleotide. The amount of the double-stranded polynucleotide in the sample was measured by ion-exchange chromatography (system: Agilent 1100 series, column: TSKgel DEAE-2SW (2.6×150 mm) (Tosoh Corp), buffer A: 20% acetonitrile, buffer B: 20% acetonitrile and 1.6 M ammonium formate, gradient (B %): 30-55% (0-20 min), flow rate: 1 mL/min, temperature: 40° C., detection: 260 nm).
The amount of the phospholipid in the nucleic acid lipid particle dispersion was measured using Phospholipid C-Test Wako (Wako Pure Chemical Industries Ltd.) according to the attached document. Specifically, the phospholipid in the sample was quantified in the presence of a 1% Triton X-100 detergent.
(§1) The amounts of cholesterol and LP in the nucleic acid lipid particle dispersion were measured by reverse-phase chromatography (system: Agilent 1100 series, column: Chromolith Performance RP-18 endcapped 100-3 monolithic HPLC-column (Merck), buffer A: 0.01% trifluoroacetic acid, buffer B: 0.01% trifluoroacetic acid and methanol, gradient (B %): 87-92% (0-10 min), flow rate: 2 mL/min, temperature: 50° C., detection: 205 nm).
(§2) The total amount of lipids was calculated from the amount of the phospholipid and the compositional ratio of lipid components constituting the liposome, and the ratio of the polynucleotide to the lipid was calculated from the aforementioned amount of the polynucleotide and the total amount of lipids according to the following expression: [Double-stranded polynucleotide concentration]/[Total lipid concentration] (wt/wt)
as §2, with “phospholipid, the amount of cholesterol, and the amount of LP,” for “phospholipid”
The amount of the double-stranded polynucleotide in a sample from the nucleic acid lipid particle dispersion was measured in the presence of a 5% Triton X-100 detergent by ion-exchange chromatography (system: Agilent 1100 series, column: DNAPac PA200 (4×250 mm) (Thermo Fisher Scientific K.K.), buffer A: 10 mM Tris, 25 mM sodium perchlorate, and 20% ethanol, pH 7.0, buffer B: 10 mM Tris, 250 mM sodium perchlorate, and 20% ethanol, pH 7.0, gradient (B %): 20-70% (0-15 min), flow rate: 0.5 mL/min, temperature: 40° C., detection: 260 nm).
as §1, with “82-92%” for “87-92%”
The total amount of lipids was calculated from the amount of the phospholipid, the amount of cholesterol, and the amount of LP, and the compositional ratio of lipid components constituting the liposome, and the ratio of the mRNA to the lipid was calculated from the “amount of the mRNA in the presence of the detergent” of the preceding paragraph (2) according to the following expression: [mRNA concentration in the presence of the detergent]/[Total lipid concentration] (wt/wt)

[2] = Average particle size of nucleic acid lipid particle (NICOMP 380ZLS); format: physicochemical; conditions: ± deviation
Procedure: The particle size of the liposome was measured using Zeta Potential/Particle Sizer NICOMP™ 380ZLS (Particle Sizing Systems, LLC). In the tables, the average particle size is indicated by a volume-average particle size, and the numeric value following ±represents a deviation.

[3] = Rate of encapsulation of polynucleotide/mRNA (Quant-iT RiboGreen, with and without Triton X-100); format: physicochemical
Procedure: The rate of encapsulation of the double-stranded polynucleotide was measured using Quant-iT RiboGreen RNA Assay kit (Invitrogen Corp.) according to the attached document.
(§3) Specifically, the double-stranded polynucleotide in the nucleic acid lipid particle dispersion was quantified in the presence and absence of a 0.015% Triton X-100 detergent, and the rate of encapsulation was calculated according to the following expression: {[Amount of the double-stranded polynucleotide in the presence of the detergent]−[Amount of the double-stranded polynucleotide in the absence of the detergent]}/[Amount of the double-stranded polynucleotide in the presence of the detergent]}×100(%) (3) Ratio of Double-Stranded Polynucleotide to Lipid
The rate of encapsulation of the mRNA was measured using Quant-iT RiboGreen RNA Assay kit (Invitrogen Corp.) according to the attached document.
as §3, with “mRNA” for “double-stranded polynucleotide”, “mRNA” for “Double-Stranded Polynucleotide”

Factor VII protein = assay: Test Example 9: Factor VII (FVII) protein measurement in mouse plasma, 0.1 mg/kg i.v.; format: in vivo; conditions: mice, i.v. 0.1 mg/kg; for FVII inhibitory activity (in words): 1 day and 6 days after administration; for Relative amount of FVII, 1 day later: plasma 1 day after administration; for Relative amount of FVII, 1 day later / Relative amount of FVII, 6 days later: PBS = 100%; for Relative amount of FVII, 6 days later: plasma 6 days after administration
Procedure: The Factor VII protein was measured according to a method described in Nature Biotechnology (2010) 28, 172-176. C57BL6/J mice (male, 9 weeks old) were randomly grouped (n=4). The nucleic acid lipid particle dispersion prepared in Example 33 was intravenously injected at a dose of 0.3 mg/kg to the tail of each mouse. One day after the administration, approximately 50 μL of blood was collected from the tail vein, and plasma was obtained. The amount of the Factor VII protein in the obtained plasma was measured using Biophen FVII assay kit (manufactured by Aniara Corp.) according to the attached protocol.
When the amount of FVII of respective plasma samples collected in equal amounts from individuals in a PBS administration group was defined as 100%, the relative ratio (%) of the amount of FVII in a plasma sample of each individual was used as a measurement value (A). An average value (B) was determined from the respective measurement values of the individuals in the PBS administration group. The relative ratio of the measurement value (A) of each individual was determined from the expression: A/B×100(%).
By the same procedures as in Test Example 7, the strength of Factor VII protein expression inhibitory activity was compared among nucleic acid lipid particles each prepared using a novel lipid. The prepared nucleic acid lipid particle dispersion was intravenously injected at a dose of 0.1 mg/kg to the tail of each mouse. One day and 6 days after the administration, approximately 50 μL of blood was collected from the tail vein, and plasma was obtained.

[4] = Example 57: PLK1424-2/A siRNA, DPPC:Chol:LP:PEG-C-DSA=7:33.5:57:2.5, N/P 3
[5] = Example 56: siFVII, DSPC:Chol:LP:PEG-C-DMA=10:48:40:2, N/P 3

Row | Ratio of polynucleotide to lipid siRNA/lipid [1, 4] [wt/wt] | Average particle size [2, 4] [nm] | Rate of polynucleotide encapsulation [3, 4] [%] | Ratio of polynucleotide to lipid siRNA/lipid [1, 5] [wt/wt] | Average particle size [2, 5] [nm] | Rate of polynucleotide encapsulation [3, 5] [%] | SMILES | PLK-1 expression inhibitory activity in tumor (in words, FIG. 5) (human PLK-1 gene) | FVII inhibitory activity (in words) (Factor VII protein) | Relative amount of FVII, 1 day later (Factor VII protein) [%] | Relative amount of FVII, 6 days later (Factor VII protein) [%]
1 | 0.095 | 103 ± 16 | 97 | – | – | – | CCCCCCCCCCCCCCCCCC(CCCCCCCCCC)OC(=O)OCCCN(C)C (stereo not drawn) [Example 19, 3-(Dimethylamino)propyloctacosan-11-yl Carbonate] | strong PLK-1 expression inhibitory activity | – | – | –
2 | – | – | – | 0.076 | 219 ± 49 | 99 | CCCCCC[C@H](C/C=C\CCCCCCCC(CCCCCCC/C=C\C[C@@H](CCCCCC)OC(C)=O)OC(=O)OCCCN(C)C)OC(C)=O [Example 23, (7R,9Z,26Z,29R)-18-({[3-(Dimethylamino)propoxy]carbonyl}oxy)pentatriaconta-9,26-diene-7,29-diyl Diacetate] | – | strong FVII inhibitory activity | 21 | 32
3 | – | – | – | 0.083 | 177 ± 36 | 97 | CCCCCCCCCCC(CCCCCCC/C=C\C[C@@H](CCCCCC)OC(C)=O)OC(=O)OCCCN(C)C (stereo partly drawn) [Example 28, (7R,9Z)-18-({[3-(Dimethylamino)propyloxy]carbonyl}oxy)octacos-9-en-7-yl Acetate] | – | strong FVII inhibitory activity | 45 | 57
4 | 0.093 | 100 ± 27 | 96 | – | – | – | CCCCCCCCCCCCCCCCCCCC(CCCCCCCCCC)OC(=O)OCCCN(C)C (stereo not drawn) [Example 45, 3-(Dimethylamino)propyl triacontan-11-yl Carbonate] | strong PLK-1 expression inhibitory activity | – | – | –
5 | 0.078 | 127 ± 29 | 98 | – | – | – | CCCCC/C=C\C/C=C\CCCCCCCCC(COCCCCCCCC/C=C\C[C@@H](CCCCCC)OC(C)=O)OC(=O)OCCCN(C)C (stereo partly drawn) [Example 54, (20,23R)-2-Methyl-9-[(9Z,12Z)-octadeca-9,12-dien-1-yl]-7-oxo-6,8,11-trioxa-2-azanonacos-20-en-23-yl Acetate] | strong PLK-1 expression inhibitory activity | – | – | –
